A short description of this series: solubility in organic solvents and in water. It is filed as physicochemical. As to conditions: in various organic solvents and in water; compared with nintedanib ethanesulphonate hemihydrate form known from WO 2004/013099.

As to `COC(=O)c1ccc2c(c1)NC(=O)/C2=C(\Nc1ccc(N(C)C(=O)CN2CCN(C)CC2)cc1)c1ccccc1` [methyl-(3Z)-3-{[(4-{methyl[(4-methylpiperazin-1-yl)acetyl]amino}phenyl)amino](phenyl)methylidene}-2-oxo-2,3-dihydro-1H-indole-6-carboxylate], the solubility entry is “better solubility in various organic solvents and in water”.

For the origin of these results see patent US20190276399A1, “POLYMORPH OF NINTEDANIB” (Olon S.P.A., priority 2016, published 2019).
